The test system of this assay is hypoxic mice. As to the kind of experiment: Survival time of mice under normal pressure in hypoxic condition (sealed wide mouth bottle with soda lime). In kind it is in vivo. As to conditions: intragastric; for Extended Survival Time: 7 days, vs control group; for Survival Time: once a day for 7 days, n = 10, x ± S. The procedure: Observation of influence of oral administration of different dosage combination of L-carnitine+trimetazidine to hypoxic mice in normal pressure trimetazidine hydrochloride: 0.15, 0.75, 1.5, 3, 6 and 9 mg/kg, equivalent to human daily dosage of 1, 5, 10, 20, 40 and 60 mg;
L-carnitine: 600 mg/kg, equivalent to human daily dosage of 4 g; 70 male mice are selected, each of a weight of 20±2 g. The mice are divided into […] randomly based on weight, 10 for each group, and are given oral administration at a dosage of 20 ml/kg, while the control group is given isovolumetric normal saline, both once a day for consecutive 7 days. In one hour after the final administration, each group of mice are placed in wide mouth bottles of a volume of 160 ml, into which 5 g of soda lime has been pre-added. One bottle contains one mouse and its cap is sealed with Vaseline. Taking death of mice as index, putting down the survival time of mice and taking a 20% or more extension of survival time as significant effect. Please refer to table 1 for the results.
Comparison of L-carnitine 600 mg/kg+trimetazidine hydrochloride 6 mg/kg and separate intragastric administration on mice in hypoxia under atmospheric pressure 40 male mice are selected, each of a weight of 20±2 g. The mice are divided into 4 groups randomly based on weight, 10 for each group, and are given intragastric administration at a dosage of 20 ml/kg, while the control group is given isovolumetric normal saline, both once a day for consecutive 7 days. In one hour after the final administration, each group of mice are placed in wide mouth bottles of a volume of 160 ml, into which 5 g of soda lime has been pre-added. One bottle contains one mouse and its cap is sealed with Vaseline. Taking death of mice as index and putting down the survival time of mice. Please refer to table 2 for the results.

Setting [1] is: trimetazidine hydrochloride 6 mg/kg alone.

Structures can show the parent of a compound that is named as a salt.

Take `COc1ccc(CN2CCNCC2)c(OC)c1OC` [trimetazidine hydrochloride]: under setting [1], the “Extended Survival Time” value was found to be 20.9% and the “Survival Time” value is given as 26.0 ± 5.2 min.

For `C[N+](C)(C)C[C@H](O)CC(=O)[O-]` [L-carnitine], for the setting “L-carnitine 600 mg/kg alone”, the “Extended Survival Time” value amounted to 33.0% and the “Survival Time” value is recorded as 28.6 ± 4.8 min.

Values taken from patent US20180117036A1, “ORAL PHARMACEUTICAL COMPOSITION FOR INCREASING HYPOXIA TOLERANCE” (CHANGZHOU HI-TECH DISTRICT MULTIPLE DIMENSION INDU, priority 2013, published 2018).
